Data published in US20260193180A1, “AUTOPHAGY INDUCING COMPOUNDS AND USES THEREOF” (SAMSARA THERAPEUTICS INC., priority 2022, published 2026).
Structures can show the parent of a compound that is named as a salt.

Tested on: Human osteosarcoma U2OS cells
Test: Acidic vesicle formation (lysosome/autolysosome staining, LysoView 633 / LysoTracker Deep Red), stimulation of autophagy
Format: cell-based
Conditions: 24 hours; for activation at 0.8 µM: read-out: Activity (percentage increase in acidic vesicle formation over the DMSO-treated control); for activation at 10 µM: read-out: increase in acidic vesicle formation over the DMSO-treated control
Procedure: Lysosomes play a fundamental role in the autophagic pathway by fusing with autophagosomes and creating ‘autolysosomes’ in order to digest their contents. Stimulation of lysosome and autolysosome formation by a compound is indicative of a stimulation of autophagy. The ability of compounds to stimulate lysosome and autolysosome formation, and thus autophagy, in live cells was assessed via fluorescent microscopy using various fluorescent stains for labelling and tracking acidic organelles (including lysosomes and autolysosomes) such as: LysoView™ 650 (70059 and 70059-T, Biotium), LysoView™633 (70058 and 70058-T, Biotium) and LysoTracker™ Deep Red (L12492, ThermoFisher Scientific). The cellular phenotype was quantitatively assessed for the induction of acidic vesicle formation and compared to a non-treated control, thus providing a measure of the ability of the compound under investigation to stimulate autophagy.
Representative procedure using LysoView™633 dye or LysoTracker™ Deep Red dye: Human osteosarcoma U2OS cells (40,000 cells/well) were seeded in a 24 well glass bottom plate (Sensoplate, Greiner Bio-One) and were incubated overnight in a humidified atmosphere at 37° C. and 5% CO2. Cells were grown in DMEM (Gibco) supplemented with 10% Fetal Bovine Serum (FBS) and 100 units/ml penicillin and 100 μg/ml streptomycin (Invitrogen). After the attachment period, cells were treated with different compounds of interest (at various concentrations in DMSO) or DMSO (non-treated control) in cell culture medium and were incubated for 24 hours. Compound-containing medium was removed and cells were incubated with pre-warmed cell culture medium containing 1× LysoView™ 633 (70058 and 70058-T, Biotium) or 50 nM LysoTracker™ Deep Red (L12492, ThermoFisher Scientific) for 45 minutes at 37° C. Finally, cell nuclei were stained for 10 minutes using Hoechst 33342 (1 μg/mL) and then the medium was replaced with fresh medium. The 24 well plate was then fitted into a heated stage on the microscope and cells maintained at 37° C. Images were captured using appropriate filter set for Cy5 and DAPI detection with the EVOS M7000 Microscope (ThermoFisher Scientific). The cellular phenotype was visually assessed for the induction of acidic vesicle formation relative to the non-treated control; multiple images were acquired and analysed using ImageJ or Cell Profiler.

Compound	activation at 0.8 µM [%]	activation at 10 µM [%]
CCOc1ccc(C(F)(F)F)cc1CN1CCN[C@H](C)C1 [Compound 36, (R)-1-(2-ethoxy-5-(trifluoromethyl)benzyl)-3-methylpiperazine hydrochloride]	10 to 30	≥ 25
CCOc1cc(Cl)c(Cl)cc1CN1CCN[C@@H](C)C1 [Compound 37, (S)-1-(4,5-dichloro-2-ethoxybenzyl)-3-methylpiperazine hydrochloride]	10 to 30	≥ 25
CCOc1ccc(OC(F)(F)F)cc1CN1CCN[C@@H](C)C1 [Compound 38, (S)-1-(2-ethoxy-5-(trifluoromethoxy)benzyl)-3-methylpiperazine hydrochloride]	10 to 30	≥ 25
CCOc1ccc(CN2CCC(CN)C2)cc1Cl (centres unmarked) [Compound 39, (1-(3-chloro-4-ethoxybenzyl)pyrrolidin-3-yl)methanamine hydrochloride]	30 to 50	≥ 25
CCOc1ccc(Cl)cc1CN1CCNCC1 [Compound 40, 1-(5-chloro-2-ethoxybenzyl)piperazine hydrochloride]	10 to 30	≥ 25
CCOc1ccc(Cl)cc1CN1CCOC(CN)C1 (centres unmarked) [Compound 41, (4-(5-chloro-2-ethoxybenzyl)morpholin-2-yl)methanamine hydrochloride]	10 to 30	≥ 25
CCOc1ccc(C(F)(F)F)cc1CCN1CC[C@@H](CN)C1 [Compound 42, (S)-(1-(2-ethoxy-5-(trifluoromethyl)phenethyl)pyrrolidin-3-yl)methanamine hydrochloride]	50 to 100	≥ 25
CCCOc1ccc(Cl)cc1CCN1CCC[C@@H](CN)C1 [Compound 43, (S)-(1-(5-chloro-2-propoxyphenethyl)piperidin-3-yl)methanamine hydrochloride]	50 to 100	≥ 25
NC[C@@H]1CCN(CCc2cc(Cl)ccc2OCC2CC2)C1 [Compound 44, (S)-(1-(5-chloro-2-(cyclopropylmethoxy)phenethyl)pyrrolidin-3-yl)methanamine hydrochloride]	50 to 100	≥ 25
CCOc1ccc(Cl)cc1CCN1CCC[C@@H](CN)C1 [Compound 45, (S)-(1-(5-chloro-2-ethoxyphenethyl)piperidin-3-yl)methanamine hydrochloride]	50 to 100	≥ 25
C[C@H]1CN(Cc2cc(Cl)ccc2OCC2CC2)CCN1 [Compound 46, (S)-1-(5-chloro-2-(cyclopropylmethoxy)benzyl)-3-methylpiperazine hydrochloride]	10 to 30	≥ 25
CCCOc1ccc(Cl)cc1CN1CCN[C@@H](C)C1 [Compound 47, (S)-1-(5-chloro-2-propoxybenzyl)-3-methylpiperazine hydrochloride]	30 to 50	≥ 25
CCCOc1ccc(Cl)cc1CCN1CC[C@@H](CN)C1 [Compound 48, (S)-(1-(5-chloro-2-propoxyphenethyl)pyrrolidin-3-yl)methanamine hydrochloride]	10 to 30	≥ 25
CCOc1ccc(Cl)cc1CCN1CC[C@@H](CN)C1 [Compound 49, (S)-(1-(5-chloro-2-ethoxyphenethyl)pyrrolidin-3-yl)methanamine hydrochloride]		≥ 25
CCOc1ccc(Cl)cc1CN1CC[C@@H](CN(C)C)C1 [Compound 50, (S)-1-(1-(5-chloro-2-ethoxybenzyl)pyrrolidin-3-yl)-N,N-dimethylmethanamine]	10 to 30	≥ 25
CCOc1ccc(Cl)cc1CN1CC[C@@H](CNC)C1 [Compound 51, (S)-1-(1-(5-chloro-2-ethoxybenzyl)pyrrolidin-3-yl)-N-methylmethanamine]		≥ 25
CC(C)COc1ccc(Cl)cc1CN1CC[C@@H](CN)C1 [Compound 52, (S)-(1-(5-chloro-2-isobutoxybenzyl)pyrrolidin-3-yl)methanamine hydrochloride]	10 to 30	≥ 25
CC(C)Oc1ccc(Cl)cc1CN1CC[C@@H](CN)C1 [Compound 53, (S)-(1-(5-chloro-2-isopropoxybenzyl)pyrrolidin-3-yl)methanamine hydrochloride]		≥ 25
COCCOc1ccc(Cl)cc1CN1CC[C@@H](CN)C1 [Compound 54, (S)-(1-(5-chloro-2-(2-methoxyethoxy)benzyl)pyrrolidin-3-yl)methanamine hydrochloride]		≥ 25
NC[C@@H]1CCN(Cc2cc(Cl)cc3c2OCO3)C1 [Compound 55, (S)-(1-((6-chlorobenzo[d][1,3]dioxol-4-yl)methyl)pyrrolidin-3-yl)methanamine hydrochloride]	> 100	≥ 25
CCOc1ccc(Cl)cc1CN1CC[C@H](CN)C1 [Compound 56, (R)-(1-(5-chloro-2-ethoxybenzyl)pyrrolidin-3-yl)methanamine hydrochloride]	> 100	≥ 25
CCOc1ccc(CN2CC[C@@H](CN)C2)c(F)c1Cl [Compound 57, (S)-(1-(3-chloro-4-ethoxy-2-fluorobenzyl)pyrrolidin-3-yl)methanamine hydrochloride]		≥ 25
CCOc1cc(F)c(CN2CC[C@@H](CN)C2)cc1Cl [Compound 58, (S)-(1-(5-chloro-4-ethoxy-2-fluorobenzyl)pyrrolidin-3-yl)methanamine hydrochloride]		≥ 25
CCOc1cc(C#N)c(Cl)cc1CN1CC[C@H](CN)C1 [Compound 60, (R)-4-((3-(aminomethyl)pyrrolidin-1-yl)methyl)-2-chloro-5-ethoxybenzonitrile hydrochloride]		≥ 25
CCOc1cc(C#N)c(Cl)cc1CN1CC[C@@H](CN)C1 [Compound 61, (S)-4-((3-(aminomethyl)pyrrolidin-1-yl)methyl)-2-chloro-5-ethoxybenzonitrile hydrochloride]		≥ 25
CCOc1ccc(Cl)cc1CCN1CCO[C@@H](CN)C1 [Compound 63, (S)-(4-(5-chloro-2-ethoxyphenethyl)morpholin-2-yl)methanamine hydrochloride]		≥ 25
CCOc1ccc(C#N)cc1CCN1CCC[C@@H](CN)C1 [Compound 64, (S)-3-(2-(3-(aminomethyl)piperidin-1-yl)ethyl)-4-ethoxybenzonitrile hydrochloride]		≥ 25
N#Cc1ccc(OCC2CC2)c(CCN2CC[C@@H](CN)C2)c1 [Compound 66, (S)-3-(2-(3-(aminomethyl)pyrrolidin-1-yl)ethyl)-4-(cyclopropylmethoxy)benzonitrile hydrochloride]		≥ 25
CCOc1ccc(CCN2CCC[C@@H](CN)C2)cc1Cl [Compound 67, (S)-(1-(3-chloro-4-ethoxyphenethyl)piperidin-3-yl)methanamine hydrochloride]		≥ 25
CCOc1ccc(Cl)cc1CN1CC[C@H](N)C1 [Compound 69, (S)-1-(5-chloro-2-ethoxybenzyl)pyrrolidin-3-amine hydrochloride]		≥ 25
